Measured values: ChEMBL document CHEMBL1126980, “New, potent anthelmintic and acaricidal agents: 4-deoxy-4-thio-substituted avermectin derivatives” (Bioorg Med Chem Lett, 1993)
≈ marks a conversion by molar mass, not a printed value.

What was measured:
Artemia salina = assay: Tested in vitro for the biological efficacy using Artemia salina (brine shrimp) immobilization assay; assay type: functional
Caenorhabditis elegans = assay: Tested in vitro for the biological efficacy using Caenorhabditis elegans binding assay; assay type: functional, organism-based
Tetranychus urticae = assay: Tested for acaricidal efficacy using a Tetranychus urticae (two-spotted spider mite, TSSM) contact assay; assay type: functional; design: concentration or dose not given beside the values
[1] = test system: Trichostrongylus colubriformis; assay: Tested in vivo for the biological efficacy using Trichostrongylus colubriformis gerbil assay; assay type: functional
Ovis aries [2] = assay: Tested for the anthelmintic efficacy against Oesphagostomum columbianum at 0.1 mg/kg; range is 91-100%; assay type: functional
Ovis aries [3] = assay: Tested for the anthelmintic efficacy against Cooperia curticei at 0.1 mg/kg; range is 91-100%; assay type: functional
Ovis aries [4] = assay: Tested for the anthelmintic efficacy against Ostertagia circumcincta at 0.1 mg/kg; range is 91-100%; assay type: functional
Ovis aries [5] = assay: Tested for the anthelmintic efficacy against Trichostrongylus axei at 0.1 mg/kg; range is 91-100%; assay type: functional
Ovis aries [6] = assay: Tested for the anthelmintic efficacy against Trichostrongylus colubriformis at 0.1 mg/kg; range is 91-100%; assay type: functional
Ovis aries [7] = assay: Tested for anthelmintic efficacy against Haemonchus contortus at 0.1 mg/kg; range is 91-100%; assay type: functional

SMILES	IC100 (Artemia salina)	IC50 (Caenorhabditis elegans)	Mortality (Tetranychus urticae)	ED85 [1]	Reduction (Ovis aries [2])	Reduction (Ovis aries [3])	Reduction (Ovis aries [4])	Reduction (Ovis aries [5])	Reduction (Ovis aries [6])	Reduction (Ovis aries [7])
CCC(C)[C@H]1O[C@]2(CC[C@@H]1C)C[C@@H]1C[C@@H](C/C=C(\C)[C@@H](O[C@H]3C[C@H](OC)[C@@H](O[C@H]4C[C@H](OC)[C@H]([S+]([O-])CCO)[C@H](C)O4)[C@H](C)O3)[C@@H](C)/C=C/C=C3\CO[C@@H]4[C@H](O)C(C)=C[C@@H](C(=O)O1)[C@]34O)O2 (some centres not stated)	870 ng/mL	0.188 ng/mL (≈ 0.198 nM)	31%	0.25 mg/kg	–	–	–	–	–	–
CCC(C)[C@H]1O[C@]2(C=C[C@@H]1C)C[C@@H]1C[C@@H](C/C=C(\C)[C@@H](O[C@H]3C[C@H](OC)[C@@H](O[C@H]4C[C@H](OC)[C@@H](SCC(C)O)[C@H](C)O4)[C@H](C)O3)[C@@H](C)/C=C/C=C3\CO[C@@H]4[C@H](O)C(C)=C[C@@H](C(=O)O1)[C@]34O)O2 (some centres not stated)	870 ng/mL	0.153 ng/mL (≈ 0.162 nM)	88%	0.125 mg/kg	–	–	–	–	–	–
CCC(C)[C@H]1O[C@]2(C=C[C@@H]1C)C[C@@H]1C[C@@H](C/C=C(\C)[C@@H](O[C@H]3C[C@H](OC)[C@@H](O[C@H]4C[C@H](OC)[C@@H](SCCCO)[C@H](C)O4)[C@H](C)O3)[C@@H](C)/C=C/C=C3\CO[C@@H]4[C@H](O)C(C)=C[C@@H](C(=O)O1)[C@]34O)O2 (some centres not stated)	870 ng/mL	0.153 ng/mL (≈ 0.162 nM)	53%	0.25 mg/kg	–	–	–	–	–	–
CCC(C)[C@H]1O[C@]2(CC[C@@H]1C)C[C@@H]1C[C@@H](C/C=C(\C)[C@@H](O[C@H]3C[C@H](OC)[C@@H](O[C@H]4C[C@H](OC)[C@H](S(=O)(=O)CCO)[C@H](C)O4)[C@H](C)O3)[C@@H](C)/C=C/C=C3\CO[C@@H]4[C@H](O)C(C)=C[C@@H](C(=O)O1)[C@]34O)O2 (some centres not stated)	650 ng/mL	0.119 ng/mL (≈ 0.123 nM)	48%	0.125 mg/kg	91%	91%	91%	91%	91%	91%
CCC(C)[C@H]1O[C@]2(C=C[C@@H]1C)C[C@@H]1C[C@@H](C/C=C(\C)[C@@H](O[C@H]3C[C@H](OC)[C@@H](O[C@H]4C[C@H](OC)[C@@H]([S+]([O-])CCO)[C@H](C)O4)[C@H](C)O3)[C@@H](C)/C=C/C=C3\CO[C@@H]4[C@H](O)C(C)=C[C@@H](C(=O)O1)[C@]34O)O2 (some centres not stated)	870 ng/mL	0.469 ng/mL (≈ 0.494 nM)	69%	0.063 mg/kg	–	–	–	–	–	–
CCC(C)[C@H]1O[C@]2(C=C[C@@H]1C)C[C@@H]1C[C@@H](C/C=C(\C)[C@@H](O[C@H]3C[C@H](OC)[C@@H](O[C@H]4C[C@H](OC)[C@H]([S+]([O-])CCO)[C@H](C)O4)[C@H](C)O3)[C@@H](C)/C=C/C=C3\CO[C@@H]4[C@H](O)C(C)=C[C@@H](C(=O)O1)[C@]34O)O2 (some centres not stated)	1300 ng/mL	> 1.27 ng/mL	13%	0.125 mg/kg	–	–	–	–	–	–
CCC(C)[C@H]1O[C@]2(C=C[C@@H]1C)C[C@@H]1C[C@@H](C/C=C(\C)[C@@H](O[C@H]3C[C@H](OC)[C@@H](O[C@H]4C[C@H](OC)[C@@H](SCCNC(C)=O)[C@H](C)O4)[C@H](C)O3)[C@@H](C)/C=C/C=C3\CO[C@@H]4[C@H](O)C(C)=C[C@@H](C(=O)O1)[C@]34O)O2 (some centres not stated)	870 ng/mL	0.165 ng/mL (≈ 0.169 nM)	63%	0.063 mg/kg	–	–	–	–	–	–
CCC(C)[C@H]1O[C@]2(C=C[C@@H]1C)C[C@@H]1C[C@@H](C/C=C(\C)[C@@H](O[C@H]3C[C@H](OC)[C@H](SCCO)[C@H](C)O3)[C@@H](C)/C=C/C=C3\CO[C@@H]4[C@H](O)C(C)=C[C@@H](C(=O)O1)[C@]34O)O2 (some centres not stated)	870 ng/mL	–	94%	0.063 mg/kg	–	–	–	–	–	–
CCC(C)[C@H]1O[C@]2(C=C[C@@H]1C)C[C@@H]1C[C@@H](C/C=C(\C)[C@@H](O[C@H]3C[C@H](OC)[C@H](SC)[C@H](C)O3)[C@@H](C)/C=C/C=C3\CO[C@@H]4[C@H](O)C(C)=C[C@@H](C(=O)O1)[C@]34O)O2 (some centres not stated)	6930 ng/mL	0.422 ng/mL (≈ 0.556 nM)	100%	0.125 mg/kg	–	–	–	–	–	–
CCC(C)[C@H]1O[C@]2(C=C[C@@H]1C)C[C@@H]1C[C@@H](C/C=C(\C)[C@@H](O[C@H]3C[C@H](OC)[C@@H](O[C@H]4C[C@H](OC)[C@@H](S(=O)(=O)CC)[C@H](C)O4)[C@H](C)O3)[C@@H](C)/C=C/C=C3\CO[C@@H]4[C@H](O)C(C)=C[C@@H](C(=O)O1)[C@]34O)O2 (some centres not stated)	870 ng/mL	0.123 ng/mL (≈ 0.13 nM)	64%	0.063 mg/kg	–	–	–	–	–	–
CCC(C)[C@H]1O[C@]2(C=C[C@@H]1C)C[C@@H]1C[C@@H](C/C=C(\C)[C@@H](O[C@H]3C[C@H](OC)[C@@H](O[C@H]4C[C@H](OC)[C@H](SCC(C)O)[C@H](C)O4)[C@H](C)O3)[C@@H](C)/C=C/C=C3\CO[C@@H]4[C@H](O)C(C)=C[C@@H](C(=O)O1)[C@]34O)O2 (some centres not stated)	870 ng/mL	0.216 ng/mL (≈ 0.228 nM)	89%	0.063 mg/kg	–	–	–	–	–	–
CCC(C)[C@H]1O[C@]2(C=C[C@@H]1C)C[C@@H]1C[C@@H](C/C=C(\C)[C@@H](O[C@H]3C[C@H](OC)[C@@H](O[C@H]4C[C@H](OC)[C@@H](S(=O)(=O)CCO)[C@H](C)O4)[C@H](C)O3)[C@@H](C)/C=C/C=C3\CO[C@@H]4[C@H](O)C(C)=C[C@@H](C(=O)O1)[C@]34O)O2 (some centres not stated)	870 ng/mL	0.351 ng/mL (≈ 0.364 nM)	64%	0.063 mg/kg	–	–	–	–	–	–
CCC(C)[C@H]1O[C@]2(CC[C@@H]1C)C[C@@H]1C[C@@H](C/C=C(\C)[C@@H](O[C@H]3C[C@H](OC)[C@@H](O[C@H]4C[C@H](OC)[C@H](S(C)(=O)=O)[C@H](C)O4)[C@H](C)O3)[C@@H](C)/C=C/C=C3\CO[C@@H]4[C@H](O)C(C)=C[C@@H](C(=O)O1)[C@]34O)O2 (some centres not stated)	870 ng/mL	0.084 ng/mL (≈ 0.0896 nM)	64%	0.125 mg/kg	–	–	–	–	–	–
CCC(C)[C@H]1O[C@]2(C=C[C@@H]1C)C[C@@H]1C[C@@H](C/C=C(\C)[C@@H](O[C@H]3C[C@H](OC)[C@@H](O[C@H]4C[C@H](OC)[C@H](S(=O)(=O)CC)[C@H](C)O4)[C@H](C)O3)[C@@H](C)/C=C/C=C3\CO[C@@H]4[C@H](O)C(C)=C[C@@H](C(=O)O1)[C@]34O)O2 (some centres not stated)	650 ng/mL	0.128 ng/mL (≈ 0.135 nM)	68%	0.031 mg/kg	–	–	–	–	–	–
CCC(C)[C@H]1O[C@]2(C=C[C@@H]1C)C[C@@H]1C[C@@H](C/C=C(\C)[C@@H](O[C@H]3C[C@H](OC)[C@@H](O[C@H]4C[C@H](OC)[C@H]([S+](C)[O-])[C@H](C)O4)[C@H](C)O3)[C@@H](C)/C=C/C=C3\CO[C@@H]4[C@H](O)C(C)=C[C@@H](C(=O)O1)[C@]34O)O2 (some centres not stated)	870 ng/mL	0.262 ng/mL (≈ 0.285 nM)	64%	0.031 mg/kg	91%	91%	91%	91%	91%	91%
CCC(C)[C@H]1O[C@]2(C=C[C@@H]1C)C[C@@H]1C[C@@H](C/C=C(\C)[C@@H](O[C@H]3C[C@H](OC)[C@@H](O[C@H]4C[C@H](OC)[C@@H]([S+](C)[O-])[C@H](C)O4)[C@H](C)O3)[C@@H](C)/C=C/C=C3\CO[C@@H]4[C@H](O)C(C)=C[C@@H](C(=O)O1)[C@]34O)O2 (some centres not stated)	430 ng/mL	–	–	0.016 mg/kg	91%	91%	91%	91%	91%	91%
CCC(C)[C@H]1O[C@]2(CC[C@@H]1C)C[C@@H]1C[C@@H](C/C=C(\C)[C@@H](O[C@H]3C[C@H](OC)[C@@H](O[C@H]4C[C@H](OC)[C@H]([S+](C)[O-])[C@H](C)O4)[C@H](C)O3)[C@@H](C)/C=C/C=C3\CO[C@@H]4[C@H](O)C(C)=C[C@@H](C(=O)O1)[C@]34O)O2 (some centres not stated)	870 ng/mL	0.108 ng/mL (≈ 0.117 nM)	77%	0.063 mg/kg	–	–	–	–	–	–
CCC(C)[C@H]1O[C@]2(C=C[C@@H]1C)C[C@@H]1C[C@@H](C/C=C(\C)[C@@H](O[C@H]3C[C@H](OC)[C@@H](O)[C@H](C)O3)[C@@H](C)/C=C/C=C3\CO[C@@H]4[C@H](O)C(C)=C[C@@H](C(=O)O1)[C@]34O)O2 (some centres not stated) [AVERMECTIN MS]	430 ng/mL	0.81 ng/mL (≈ 1.11 nM)	93%	0.075 mg/kg	–	–	–	–	–	–
